Results on nine molecules are retold here after article PMC12670400, “LEKTI-Grafted Sunflower Trypsin Inhibitor: A Potential Therapeutic for Skin Diseases” (Journal of Medicinal Chemistry, 2025).

One test relates to trypsin. Also noted: method as in PMID 143965. Conditions: cited from earlier work.
The subject of test [1] is plasmin. Also noted: method as in PMID 143965. The conditions noted are these: cited from earlier work.
The subject of a further test is plasma kallikrein. Also noted: method as in PMID 143965. Conditions: cited from earlier work.
The next test concerns thrombin. Also noted: method as in PMID 143965. The conditions noted are these: cited from earlier work.
For test [2], the target named is T1, KLK5 (Homo sapiens, UniProt Q9Y337).
T1 construct: purchased R&D Systems 1108-SE
T1 sequence (Q9Y337 23-293): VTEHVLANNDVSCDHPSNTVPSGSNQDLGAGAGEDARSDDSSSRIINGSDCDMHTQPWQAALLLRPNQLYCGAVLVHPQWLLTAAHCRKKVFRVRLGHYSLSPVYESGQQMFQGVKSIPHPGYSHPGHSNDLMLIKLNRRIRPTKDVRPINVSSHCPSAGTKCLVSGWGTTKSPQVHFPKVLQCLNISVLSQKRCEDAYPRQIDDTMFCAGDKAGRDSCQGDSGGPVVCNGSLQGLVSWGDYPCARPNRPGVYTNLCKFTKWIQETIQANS
Kind of test: Protease activity assay: inhibition of recombinant KLK5 (Boc-VPR-AMC substrate). Conditions: for selectivity for KLK5 against select KLKs in skin: KLK5 versus other skin KLKs; for IC50: n = 3, 10 nM KLK5, Boc-VPR-AMC 100 µM, PBS pH 8.0, read-out: IC50 (n = 3)/nM for KLKs: KLK5. In kind it is biochemical. On the procedure: Inhibitory activity against KLK5 was evaluated using the fluorogenic substrate Boc-VPR-AMC for KLK5 (Table ). […] The P1–P1′ reactive site (Arg5 to Ser6) is critical for inhibitor binding, with the P1′ position contributing up to 50% of the total association energy. , The conserved serine at P1′ in Bowman-Birk inhibitors (BBIs) is essential for function. […] Preservation of serine in the P1′ position restored inhibitory activity seen in 5 and 6. Preserving the native serine restored efficacy to the nanomolar range (5: 31 ± 7 nM; 6: 114 ± 11 nM).
Methods for biological experiment
SFTI analogues were created by individual amino acid substitutions in PYMOL (Python Molecular Graphics System) using the existing solution NMR structure of native SFTI - 1 (1JBL) found in the RCSB (Research Collaboratory for Structural Bioinformatics) database. Residues of 2 were mutated as follows: L5R, I10H, and F12W with conserved SFTI-1 backbone structure. Other SFTI based analogues were further modified using PYMOL. Currently, there are no SFTI-1 and Kallikrein 5 co-crystal structures found in the RCSB database. Superimposing the existing crystal structure of SFTI-1 and Trypsin complex (4XOJ) with Kallikrein 5 crystal structure (2PSX) was performed with PYMOL. Ab-initio docking between KLK5 and 2 were performed with HADDOCK 2.4 1, 2, with binding active site parameter set to Arg2, Cys3, Thr4, Arg5, Ser6 for 2 and Ser195, His57, and Asp102 for KLK5 catalytic triad. PRODIGY 3-5, set at 25 °C, was used to predict dissociation constant and binding interactions of docked clusters. Structural visualization and alignment were performed with PYMOL 6, and comparative sequence analysis was performed with MEGA11 7.
A fluorescence spectrometer using SpectraMax® i3x plate reader (Molecular Devices, United States) was used to measure the relative fluorescence unit (RFU) on a 96-well black microplate (Grenier Bio-one, cat no. 655074). The wavelengths were set to 360/460 nm (excitation/emission) for the substrate Boc-VPR-AMC (Bachem AG, cat no. 4003460) and 320/405nm for the substrate Mca-RPKPVE-Nval-WRK(Dnp)-NH2 Fluorogenic MMP Substrate (R&D Systems Biotechne, cat no.ES002). The Boc-VPR-AMC stock solution was prepared by dissolving the solid form in dimethyl sulfoxide to 100 mM. Mca-RPKPVE-Nval-WRK(Dnp)-NH2 fluorogenic MMP Substrate is supplied as stock solution at 10.0 mg/mL in dimethyl sulfoxide. Boc-VPR-AMC was used as a substrate for KLK5, 8 and 14. Mca-RPKPVE-Nval-WRK(Dnp)-NH2 was used as a substrate for KLK7. The ligand-only solution serves as a negative control (minimum RFU, 100% inhibition), and enzyme-only was served as positive (maximum RFU, 0% inhibition). The activities of proteases were measured and readout against the standard curve made in serial dilutions of tested recombinant KLKs, ranging from 0nM to 60nM. Each assay was done in triplicates and repeated at least for three times […]
Assessment of analogue mediated inhibition of KLK5, KLK7, KLK8, and KLK14 […]
Recombinant KLK5 (R&D Systems, cat no. 1108-SE) was diluted to a final concentration of 10 nM in 1X PBS (pH 8.0). KLK5 was pre -incubated on ice for 1 hour with serial dilutions of SFTI-derived analogues to assess inhibitory activity. After incubation, 20 µL of each mixture was transferred to we lls of a 96-well microplate in triplicates. The enzymatic reaction was initiated by adding 100 µL of Boc -VPR-AMC substrate (final concentration 100 µM) to each well. Fluorescence (RFU) was measured using a SpectraMax® i3x plate reader with chamber temperature maintained at 37°C. Readings were started at 0 minutes (baseline) and another […]
Recombinant KLK7 (R&D Systems , cat no. 2624-SE) and KLK14 (R&D Systems, cat no. 2664-SE) were activated by adding 1 mM CaCl ₂ 0.05% v/v Brij-35 (Sigma, cat no. […]
incubated at 37°C for 1 hour. Reactions were stopped by adding EDTA to a final concentration of 50 mM (Sigma, cat no. EDS-100G) KLK8 (catalytic domain only; R&D Systems, cat no. 2025-SE-010) was activated separately with 11 nM lysyl […]

For test [3], the target named is T2, KLK7 (Homo sapiens, UniProt P49862). Kind of test: Protease activity assay: inhibition of recombinant KLK7 (Mca-RPKPVE-Nval-WRK(Dnp)-NH2 substrate). The conditions noted are these: n = 3; 100 nM KLK7, 37°C, 20 hours; read-out: IC50 (n = 3)/nM for KLKs: KLK7. It counts as biochemical. Also noted: purchased R&D Systems 2624-SE. The source says:
using the following equation: […]
(1 picture or pasted object on this page, not shown here)

Test [4] addresses plasmin. Further details: method as in PMID 7543841. Conditions: read-out: Ki against trypsin-like plasmin; cited from earlier work.
Another test has as its target LEKTI-2 (Homo sapiens) (UniProt Q5DT21). Conditions: cited from earlier work.
In test [5] the target is Kallikrein-related peptidase 5 (KLK5) (UniProt Q9Y337). The test can be described thus: enzyme inhibition assay (fluorogenic substrate); inhibition of KLK5 activity by the peptide, fluorogenic substrate Boc-VPR-AMC, n = 3; conditions in the Supporting Information.
Test [6] addresses T3, KLK14 (UniProt Q9P0G3).
T3 sequence (Q9P0G3 41-267, species assumed, looked up): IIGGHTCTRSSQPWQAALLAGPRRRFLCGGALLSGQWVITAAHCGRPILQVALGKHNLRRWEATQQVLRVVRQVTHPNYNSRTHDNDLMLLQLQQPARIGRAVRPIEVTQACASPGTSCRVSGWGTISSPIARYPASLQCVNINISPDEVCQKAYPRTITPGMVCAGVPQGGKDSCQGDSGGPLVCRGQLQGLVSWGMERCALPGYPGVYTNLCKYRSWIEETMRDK
Kind of test: enzyme inhibition assay (fluorogenic substrate); selectivity: inhibition of KLK7, KLK8 or KLK14 activity by the peptide, n = 3; substrates and conditions in the Supporting Information.

Test [7] concerns the target T4, KLK8 (UniProt O60259 33-260).
T4 construct: Kallikrein 8 (KLK8); construct and source are in the Supporting Information
T4 sequence (looked up): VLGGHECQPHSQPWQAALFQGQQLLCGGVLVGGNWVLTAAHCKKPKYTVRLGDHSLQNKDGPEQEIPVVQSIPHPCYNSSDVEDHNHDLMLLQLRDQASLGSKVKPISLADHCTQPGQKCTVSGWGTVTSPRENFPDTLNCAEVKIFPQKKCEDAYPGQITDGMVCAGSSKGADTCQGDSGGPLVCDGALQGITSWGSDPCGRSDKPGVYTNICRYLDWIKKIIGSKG
Described as above.

Test [8] has as its target T1, KLK5. Also noted: method as in Chen et al. (2016). Conditions: earlier work of the authors; ref Chen et al. (2016); read-out: IC50 (n = 3)/nM for KLKs: KLK5; cited from earlier work.
Test [9] has as its target T5, KLK8 (Homo sapiens, UniProt O60259).
T5 construct: purchased R&D Systems 2025-SE-010
T5 sequence (O60259 33-260): T4 sequence (looked up)
Also noted: method as in Chen et al. (2016). The conditions noted are these: ref Chen et al. (2016); read-out: IC50 (n = 3)/nM for KLKs: KLK8; cited from earlier work.

Another test addresses aprotinin (Bos taurus) (UniProt P00974). Conditions: cited from earlier work.
The target in test [10] is T6, KLK14 (Homo sapiens, UniProt Q9P0G3).
T6 construct: purchased R&D Systems 2664-SE
T6 sequence (Q9P0G3 25-251): T3 sequence (Q9P0G3 41-267, species assumed, looked up)
The conditions noted are these: prior findings, reference not given; cited from earlier work.

The target of test [11] is T2, KLK7. Further details: purchased R&D Systems 2624-SE. The conditions noted are these: prior findings, reference not given; cited from earlier work.
Target sequence in this assay (P49862 30-253): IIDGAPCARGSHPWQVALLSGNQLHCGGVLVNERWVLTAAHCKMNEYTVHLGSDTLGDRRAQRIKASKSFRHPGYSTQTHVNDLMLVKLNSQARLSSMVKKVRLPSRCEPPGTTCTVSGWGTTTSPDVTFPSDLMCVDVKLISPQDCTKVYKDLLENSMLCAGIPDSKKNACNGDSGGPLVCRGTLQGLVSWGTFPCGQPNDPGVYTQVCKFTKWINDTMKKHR

Counter-ions that a name gives are not always drawn. Like-named read-outs stand apart in the source and are kept apart here. Bridge positions count the residues as written; N and C are the ends. Peptide text beside a SMILES is read from it.

As to `CCOC(=O)c1ccc(OC(=O)CCCCCN=C(N)N)cc1` [Gabexate mesylate], the IC50 in the test with trypsin was 9400 nM; with plasmin [1], 30000 nM; with plasma kallikrein, 41000 nM; in the test on thrombin, 110000 nM.
With `C[C@@H](O)[C@@H]1NC(=O)[C@@H]2CSSC[C@H](NC(=O)[C@H](CCC(=O)O)NC(=O)[C@@H]3CCCN3C(=O)[C@@H]3CCCN3C(=O)[C@H](CO)NC(=O)[C@H](CO)NC(=O)[C@H](CCCNC(=N)N)NC1=O)C(=O)N[C@@H](Cc1c[nH]c3ccccc13)C(=O)N1CCC[C@H]1C(=O)N[C@@H](CC(N)=O)C(=O)NCC(=O)N[C@@H](CO)C(=O)N2` [compound 9] (cyclo(GSCTRSSPPECWPN); disulfide 3-11), on KLK5 [2], the “selectivity for KLK5 against select KLKs in skin” value was determined as 4 fold and the IC50 turned out to be 54 ± 6 nM. The IC50 on KLK7 [3] was 165 ± 12 nM.
In the case of `C[C@@H](O)[C@@H]1NC(=O)[C@@H]2CSSC[C@H](NC(=O)[C@H](CCC(=O)O)NC(=O)[C@@H]3CCCN3C(=O)[C@@H]3CCCN3C(=O)[C@H](CO)NC(=O)[C@H](CO)NC(=O)[C@H](CCCNC(=N)N)NC1=O)C(=O)N[C@@H](Cc1c[nH]c3ccccc13)C(=O)N1CCC[C@H]1C(=O)N[C@@H](CC(N)=O)C(=O)NCC(=O)N[C@@H](Cc1ccc(O)cc1)C(=O)N2` [compound 10] (cyclo(GYCTRSSPPECWPN); disulfide 3-11), at KLK5 [2], the “selectivity for KLK5 against select KLKs in skin” value stood at 4 fold and the IC50 amounted to 56 ± 7 nM. On KLK7 [3], the IC50 is 240 ± 14 nM.
On to Aprotinin, for which the Ki – broadly, a measure of affinity in units of concentration, obtained from inhibition or displacement – at plasmin [4] was 0.07 nM.
In the case of KLK5 (from UniProt Q9Y337), in the test with LEKTI-2 (Homo sapiens), the Ki was 65 nM.
Take “Sunflower trypsin inhibitor-1 (SFTI-1) 1 (peptide)”: the IC50 is 230 nM in test [5], 30 nM with KLK14 [6] and 1290 nM with KLK8 [7].
Turning to “Sunflower trypsin inhibitor-1 [compound 1]”, the IC50 at KLK5 [8] was 230 ± 3 nM; at KLK8 [9] it was 1290 ± 51 nM.
plasmin (from UniProt P00747): in the test with aprotinin (Bos taurus), the Ki is 0.07 nM.

B1: LEKTI-2: LEKTI-2, encoded by SPINK9, selective binding to KLK5 (protein, UniProt Q5DT21 20-86, looked up)
Serine protease inhibitor …: IECAKQTKQMVDCSHYKKLPPGQQRFCHHMYDPICGSDGKTYKNDCFFCSKVKKTDGTLKFVHFGKC
With B1, the “inhibition of KLK14” value with KLK14 [10] was “without potently inhibiting”. Also, the “inhibition of KLK7” value in the test with KLK7 [11] is reported as “without potently inhibiting”.
